# Experimental data as given in patent US20250313563A1, “GLYCOGEN SYNTHASE KINASE 3 INHIBITORS AND USES THEREOF” (The Broad Institute, Inc., priority 2022, published 2025).
# Like-named read-outs stand apart in the source and are kept apart here.
# Experiments:
# [1] = molecular target: GSK3α (GST-full length GSK3α) (Homo sapiens (Human), UniProt P49840); experiment: GSK3α TR-FRET kinase assay; assay type: biochemical
# Outline: (§1)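 Readout: anti-pSer641 Tb antibody/streptavidin-d2 signal after 60 min, expressed as 665/615 ratio and fitted versus log concentration for IC50. Enzyme: 1 nM GST-GSK3 (α or β), compound-preincubated 30 min. Conditions: pH 7.5 Tris buffer with MgCl2, DTT, BSA; ATP at 4 or 2 μM, or 1 mM; 100 min.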
# [2] = molecular target: GSK3b (GST-full length GSK3b) (Homo sapiens (Human), UniProt P49841); experiment: GSK3b TR-FRET kinase assay; assay type: biochemical
# Chain of GSK3b (GST-full length GSK3b) (P49841 whole entry): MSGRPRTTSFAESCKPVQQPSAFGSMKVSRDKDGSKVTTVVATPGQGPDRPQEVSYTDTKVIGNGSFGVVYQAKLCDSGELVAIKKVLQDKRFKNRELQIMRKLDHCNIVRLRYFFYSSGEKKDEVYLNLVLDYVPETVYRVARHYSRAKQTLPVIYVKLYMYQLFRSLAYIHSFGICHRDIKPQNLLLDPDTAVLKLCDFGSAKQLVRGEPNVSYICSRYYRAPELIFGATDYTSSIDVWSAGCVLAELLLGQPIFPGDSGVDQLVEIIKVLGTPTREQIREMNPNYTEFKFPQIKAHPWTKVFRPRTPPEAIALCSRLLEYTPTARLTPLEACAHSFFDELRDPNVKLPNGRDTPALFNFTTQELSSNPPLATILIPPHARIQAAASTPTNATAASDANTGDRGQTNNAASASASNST
# Outline: as §1
# [3] = 1 nM GSK3α, 4 μM ATP, 30 minute preincubation, Table 16, read-out: GSK3-A TR-FRET BIOCHEMICAL (TR-FRET)
# [4] = 1 nM GSK3b, 2 μM ATP, 30 minute preincubation, Table 16, read-out: GSK3-B TR-FRET BIOCHEMICAL (TR-FRET)
# [5] = 1 nM GSK3α, 4 μM ATP, 30 minute preincubation, geometric mean, read-out: GSK3-A TR-FRET BIOCHEMICAL (TR-FRET), GMean, IC50
# [6] = 1 nM GSK3b, 2 μM ATP, 30 minute preincubation, geometric mean, read-out: GSK3-B TR-FRET BIOCHEMICAL (TR-FRET), GMean, IC50
# [7] = 1 nM GSK3α, 4 μM ATP, 30 minute preincubation, Table 16, read-out: GSK3-A TR-FRET BIOCHEMICAL (TR-FRET), IC50
# [8] = 1 nM GSK3b, 2 μM ATP, 30 minute preincubation, Table 16, read-out: GSK3-B TR-FRET BIOCHEMICAL (TR-FRET), IC50
# [9] = 1 nM GSK3α, 4 μM ATP, 30 minute preincubation, read-out: GSK3-A TR-FRET BIOCHEMICAL (TR-FRET), IC50
# [10] = GSK3-A (TR-FRET 1 mM ATP), GMean, IC50, 1 mM ATP, geometric mean
# [11] = 1 nM GSK3b, 2 μM ATP, 30 minute preincubation, read-out: GSK3-B TR-FRET BIOCHEMICAL (TR-FRET), IC50
# [12] = GSK3-B (TR-FRET 1 mM ATP), GMean, IC50, 1 mM ATP, geometric mean
# [13] = read-out: GSK3-A (TR-FRET 1 mM ATP), GMean, IC50, 1 mM ATP, geometric mean
# [14] = read-out: GSK3-B (TR-FRET 1 mM ATP), GMean, IC50, 1 mM ATP, geometric mean
# Chain of GSK3α (GST-full length GSK3α) (P49840 whole entry): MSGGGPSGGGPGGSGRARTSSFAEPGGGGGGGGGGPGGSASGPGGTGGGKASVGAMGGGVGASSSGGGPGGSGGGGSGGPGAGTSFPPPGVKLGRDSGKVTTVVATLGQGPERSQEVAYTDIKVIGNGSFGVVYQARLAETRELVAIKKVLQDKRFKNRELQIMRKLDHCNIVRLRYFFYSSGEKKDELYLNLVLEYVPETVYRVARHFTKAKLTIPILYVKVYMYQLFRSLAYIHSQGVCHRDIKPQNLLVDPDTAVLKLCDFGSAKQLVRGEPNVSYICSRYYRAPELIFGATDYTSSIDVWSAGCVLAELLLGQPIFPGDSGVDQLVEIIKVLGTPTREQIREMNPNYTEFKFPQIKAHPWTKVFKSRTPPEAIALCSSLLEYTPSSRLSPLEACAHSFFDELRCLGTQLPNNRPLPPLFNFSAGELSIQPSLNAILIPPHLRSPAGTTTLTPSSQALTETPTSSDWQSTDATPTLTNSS
compound,measurement,setting,value
CC1(C)CC2=C(C(=O)[C@@H]1F)[C@]1(CC[C@H](C(F)(F)F)CC1)c1c[nH]nc1N2 [Compound 918283],IC50,[1]; [3],≤ 0.1 µM
same,IC50,[2]; [4],≤ 0.1 µM
CC(C)n1ccc(S(=O)(=O)N2CCC3(CC2)C2=C(CC(C)(C)CC2=O)Nc2n[nH]cc23)n1 [Compound 947258],IC50,[1]; [3],≤ 0.1 µM
same,IC50,[2]; [4],≤ 0.1 µM
CC[C@]1(c2cccc(C3CN(C(C)=O)C3)c2)C2=C(CC(C)(C)CC2=O)Nc2n[nH]cc21 [Compound 949132],IC50,[1]; [3],> 5 µM
same,IC50,[2]; [4],> 5 µM
CC1(C)CC(=O)C2=C(C1)Nc1n[nH]cc1C21CCN(S(=O)(=O)c2cc(F)ccn2)CC1 [Compound 947262],IC50,[1]; [3],0.1 to 1 µM
same,IC50,[2]; [4],0.1 to 1 µM
Cc1ccc(S(=O)(=O)N2CCC3(CC2)C2=C(CC(C)(C)CC2=O)Nc2n[nH]cc23)c(C)c1 [Compound 947468],IC50,[1]; [3],≤ 0.1 µM
same,IC50,[2]; [4],≤ 0.1 µM
CC[C@]1(c2cccc(-c3ccnc(CCO)c3)c2)C2=C(CC(C)(C)CC2=O)Nc2n[nH]cc21 [Compound 947810],IC50,[1]; [3],≤ 0.1 µM
same,IC50,[2]; [4],0.1 to 1 µM
CCC1(c2cccc(Br)c2)C2=C(CC(C)(C)CC2=O)Nc2n[nH]c(C(F)(F)F)c21 (stereo not drawn) [Compound 810365],IC50,[1]; [5],> 1.67 µM
same,IC50,[2]; [6],> 1.67 µM
CC[C@]1(c2cccc(-c3cnn(C(F)F)c3)c2)C2=C(CC(C)(C)NC2=O)Nc2n[nH]cc21 [Compound 950254],IC50,[1]; [7],≤ 0.1 µM
same,IC50,[2]; [8],1 to 5 µM
CCC1(c2cccc(Oc3ncccn3)c2)C2=C(CC(C)(C)NC2=O)Nc2n[nH]c(Cl)c21 (stereo not drawn) [Compound 950318],IC50,[1]; [7],≤ 0.1 µM
same,IC50,[2]; [8],≤ 0.1 µM
CC(=O)N1C[C@]2(C[C@@]3(CO2)C2=C(CC(C)(C)CC2=O)Nc2n[nH]cc23)[C@H]1C [Compound 948439],IC50,[1]; [9],≤ 0.1 µM
same,IC50,[1]; [10],≤ 0.1 µM
same,IC50,[2]; [11],≤ 0.1 µM
same,IC50,[2]; [12],≤ 0.1 µM
CC[C@]1(c2cccc(-c3ccnc4c3CCC4)c2)C2=C(CC(C)(C)NC2=O)Nc2n[nH]c(C(F)(F)F)c21 [Compound 948769],IC50,[1]; [5],0.1 to 1 µM
same,IC50,[2]; [6],0.1 to 1 µM
CCC1(c2cccc(C3CCOCC3)c2)C2=C(CC(C)(C)CC2=O)Nc2n[nH]cc21 (stereo not drawn) [Compound 819638],IC50,[1]; [5],≤ 0.1 µM
same,IC50,[1]; [13],0.1 to 1 µM
same,IC50,[2]; [6],0.1 to 1 µM
same,IC50,[2]; [14],> 5 µM
CCC1(c2cccc(-c3ccnc4c3CCC4)c2)C2=C(CC(C)(C)NC2=O)Nc2n[nH]c(C(F)(F)F)c21 (stereo not drawn) [Compound 947862],IC50,[1]; [5],≤ 0.1 µM
same,IC50,[1]; [13],≤ 0.1 µM
same,IC50,[2]; [6],≤ 0.1 µM
same,IC50,[2]; [14],0.1 to 1 µM
CCC1(c2cccc(-c3cnn(C)c3)c2)C2=C(CC(C)CC2=O)Nc2n[nH]cc21 (stereo not drawn) [Compound 816752],IC50,[1]; [5],≤ 0.1 µM
same,IC50,[2]; [6],1 to 5 µM
CCC1(c2cccc(-c3ccnc(C)c3)c2)C2=C(Nc3n[nH]cc31)C(F)C(C)(C)CC2=O (stereo not drawn) [Compound 946104],IC50,[1]; [3],≤ 0.1 µM
same,IC50,[1]; [13],0.1 to 1 µM
same,IC50,[2]; [4],0.1 to 1 µM
same,IC50,[2]; [14],> 5 µM
CCC1(c2cccc(C(F)(F)F)c2)C2=C(CC(C)CC2=O)Nc2n[nH]cc21 (stereo not drawn) [Compound 810451],IC50,[1]; [5],≤ 0.1 µM
same,IC50,[2]; [6],≤ 0.1 µM
CCC1(c2cccc(S(=O)(=O)C3CCCCC3)c2)C2=C(CC(C)(C)CC2=O)Nc2n[nH]cc21 (stereo not drawn) [Compound 943541],IC50,[1]; [3],≤ 0.1 µM
same,IC50,[1]; [13],0.1 to 1 µM
same,IC50,[2]; [4],≤ 0.1 µM
same,IC50,[2]; [14],1 to 5 µM
CC[C@]1(c2ccccc2)C2=C(Nc3n[nH]cc31)[C@H]1CC[C@H](C1)C2=O [Compound 791269],IC50,[1]; [3],0.1 to 1 µM
same,IC50,[2]; [4],0.1 to 1 µM
CCC1(c2cccc(C)c2)C2=C(CC(C)(C)CC2=O)Nc2n[nH]cc21 (stereo not drawn) [Compound 789560],IC50,[1]; [13],1 to 5 µM
same,IC50,[2]; [6],0.1 to 1 µM
same,IC50,[2]; [14],> 5 µM
CC[C@]1(C)C2=C(CC(C)(C)CC2=O)Nc2n[nH]cc21 [Compound 884020],IC50,[1]; [7],> 5 µM
same,IC50,[2]; [8],> 5 µM
O=C1CC(C(F)(F)F)CC2=C1C1(CCOCC1)c1c[nH]nc1N2 (stereo not drawn) [Compound 889572],IC50,[1]; [7],0.1 to 1 µM
same,IC50,[2]; [8],0.1 to 1 µM
CC[C@@]1(c2cccc(-c3cnn(C)c3)c2)C2=C(CC(C)(C)C2=O)Nc2n[nH]cc21 [Compound 950819],IC50,[1]; [7],0.1 to 1 µM
same,IC50,[2]; [8],1 to 5 µM
Cc1cc(S(=O)(=O)N2CCC3(CC2)C2=C(CC(C)(C)CC2=O)Nc2n[nH]cc23)ccn1 [Compound 947481],IC50,[1]; [3],≤ 0.1 µM
same,IC50,[2]; [4],≤ 0.1 µM
O=C1CC2(CSC2)CC2=C1C1(CCCC1)c1c[nH]nc1N2 [Compound 913441],IC50,[1]; [3],0.1 to 1 µM
same,IC50,[2]; [4],0.1 to 1 µM
CCC1(c2cccc(C3CCCC3)c2)C2=C(CC(C)(C)CC2=O)Nc2n[nH]cc21 (stereo not drawn) [Compound 949082],IC50,[1]; [7],≤ 0.1 µM
same,IC50,[2]; [8],≤ 0.1 µM
CC[C@]1(c2cccc(-c3cc(C)ncc3C)c2)C2=C(CC(C)(C)CC2=O)Nc2n[nH]cc21 [Compound 943515],IC50,[1]; [3],1 to 5 µM
same,IC50,[2]; [4],> 5 µM
CCC1(c2cccc(-c3ccncc3F)c2)C2=C(CC(C)(C)NC2=O)Nc2n[nH]c(F)c21 (stereo not drawn) [Compound 949651],IC50,[1]; [7],≤ 0.1 µM
same,IC50,[1]; [13],0.1 to 1 µM
same,IC50,[2]; [8],≤ 0.1 µM
same,IC50,[2]; [14],> 5 µM
CC1(C)CC(=O)C2=C(C1)Nc1n[nH]cc1[C@]21CCOC2(CCC2)C1 [Compound 897756],IC50,[1]; [9],0.1 to 1 µM
same,IC50,[2]; [11],0.1 to 1 µM
CC1(C)CC(=O)C2=C(Nc3n[nH]cc3C23CCN(S(=O)(=O)c2cccc(C(F)(F)F)c2)CC3)[C@H]1F [Compound 951713],IC50,[1]; [3],≤ 0.1 µM
same,IC50,[1]; [10],0.1 to 1 µM
same,IC50,[2]; [4],≤ 0.1 µM
same,IC50,[2]; [12],1 to 5 µM
CC[C@@]1(c2ccccc2)C2=C(CC3(CC3)CC2=O)Nc2n[nH]cc21 [Compound 790615],IC50,[1]; [5],≤ 0.1 µM
same,IC50,[2]; [6],0.1 to 1 µM
CC1(C)CC(=O)C2=C(C1)Nc1n[nH]cc1[C@]21CCN(S(C)(=O)=O)C1 [Compound 942432],IC50,[1]; [3],≤ 0.1 µM
same,IC50,[2]; [4],≤ 0.1 µM
CCC1(c2cccc(C(C)c3ncccn3)c2)C2=C(CC(C)(C)CC2=O)Nc2n[nH]cc21 (stereo not drawn) [Compound 948057],IC50,[1]; [3],0.1 to 1 µM
same,IC50,[2]; [4],1 to 5 µM
CC1(C)CC(=O)C2=C(C1)Nc1n[nH]cc1C21CCN(S(=O)(=O)Cc2ccccc2)CC1 [Compound 929437],IC50,[1]; [9],≤ 0.1 µM
same,IC50,[1]; [10],≤ 0.1 µM
same,IC50,[2]; [11],≤ 0.1 µM
same,IC50,[2]; [12],0.1 to 1 µM
CCC1(c2cccc(C(F)(F)F)c2)C2=C(CCN(c3cnn(C)c3)C2=O)Nc2n[nH]cc21 (stereo not drawn) [Compound 949270],IC50,[1]; [7],≤ 0.1 µM
same,IC50,[2]; [8],0.1 to 1 µM
CC[C@@]1(c2cccc(S(=O)(=O)C3CC3)c2)C2=C(CC(C)(C)N(C)C2=O)Nc2n[nH]cc21 [Compound 949184],IC50,[1]; [7],1 to 5 µM
same,IC50,[2]; [8],> 5 µM
CC[C@]1(c2cccc(C(F)(F)F)c2)C2=C(Nc3n[nH]cc31)[C@@H](C)CN(C)C2=O [Compound 883981],IC50,[1]; [9],> 5 µM
same,IC50,[2]; [11],> 5 µM
CCc1cnccc1-c1cccc([C@]2(CC)C3=C(CC(C)(C)NC3=O)Nc3n[nH]cc32)c1 [Compound 948639],IC50,[1]; [5],≤ 0.1 µM
same,IC50,[2]; [6],0.1 to 1 µM
CC1(C)CC(=O)C2=C(C1)Nc1n[nH]cc1C21CCN(S(=O)(=O)CC2CC2)CC1 [Compound 909207],IC50,[1]; [9],≤ 0.1 µM
same,IC50,[1]; [10],≤ 0.1 µM
same,IC50,[2]; [11],≤ 0.1 µM
same,IC50,[2]; [12],0.1 to 1 µM
CCC1(c2cccc(-c3cncn3C)c2)C2=C(CC(C)(C)CC2=O)Nc2n[nH]c(C)c21 (stereo not drawn) [Compound 884001],IC50,[1]; [7],≤ 0.1 µM
same,IC50,[2]; [8],≤ 0.1 µM
CC(C)(C)Cc1[nH]nc2c1[C@@](C)(c1cccc(S(=O)(=O)N3CCCC3)c1)C1=C(CC(C)(C)NC1=O)N2 [Compound 108794],IC50,[1]; [13],> 5 µM
same,IC50,[2]; [14],> 5 µM
